Consider two compounds from patent US9920033B2, “Crystalline form of a substituted quinoline compound and pharmaceutical compositions thereof” (Sunshine Lake Pharma Co., Ltd., priority 2015, dated 2018).

One may read the AUC(0-inf) as total exposure, with the tail of the curve extrapolated. Broadly, the Cmax is the maximum level reached in the sampled fluid or tissue. As a reminder, the Tmax is the time at which the peak concentration occurs. By half-life is commonly meant how long it takes for the measured level to halve. High values mean slow decline, low ones rapid decline.

Where two headings read alike, the source gives them in different places.

A short description of data set [1]: Stability test (impurity contents by HPLC). Type of data set: physicochemical. The settings on record: for The impurity contents: HPLC; for Increase of the impurity contents: illuminating the samples for 10 days. As to the method:
A sample of crystalline form A of compound (I) (100˜200 mg) was placed on a watching glass in the form of a thin layer (thickness ≤5 mm). The samples were exposed to the following conditions: high temperature (60±2° C.) for 10 days; high humidity (25±2° C., 90%±5% relative humidity) for 10 days; illumination condition (visible light 4500 lx±500 lx with ultraviolet light not lower than 0.7 W·h/m^2, 25±2° C., 60%±5% relative humidity) for 10 days; and room temperature (30±2° C., 65%±5% relative humidity) for 10 days, respectively. The impurity contents in the samples were determined at different time points (0, 5 and 10 days) by high performance liquid chromatography (HPLC), and the absorption peaks were normalized relative to the highest peak (corresponds to compound I) which is set to 100%.

Data set [2] in a line: Pharmacokinetics test in beagle dogs. It counts as in vivo. The settings on record: for AUC(0-inf) / Cmax / Tmax / half-life / AUC(0-t): dog, plasma, po, capsule by gavage; for AUC(0-t): read-out: AUC0-24 h. As to the method:
The pharmacokinetic properties of amorphous Compound (I) or the crystalline form A of Compound (I) disclosed herein are assessed in beagle dogs. The LC/MS/MS system used in the analysis consists of an Agilent 1200 Series vacuum degasser, binary pump, well-plate autosampler, thermostatted column compartment, the Agilent G6430 Triple Quadrupole Mass Spectrometer with an electrosprayionization (ESI) source. Quantitative analysis was carried out using MRM mode. The parameters for MRM transitions are in the Table A.
An Agilent XDB-C18, 2.1×30 mm, 3.5 μM column was used for the analysis. 5 μL of the samples were injected. Analysis condition: The mobile phase was 0.1% formic acid in water (A) and 0.1% formic acid in methanol (B). The flow rate was 0.4 mL/min. And the gradient of Mobile phase was in the Table B.
Alternatively, an Agilent 6330 series LC/MS/MS spectrometer equipped with G1312A binary pumps, a G1367A autosampler and a G1314C UV detector were used in the analysis. An ESI source was used on the LC/MS/MS spectrometer. The analysis was done in positive ion mode as appropriate and the MRM transition for each analyte was optimized using standard solution. A Capcell MP-C18 100×4.6 mm I.D., […] column (Phenomenex, Torrance, Calif., USA) was used during the analysis. The mobile phase was 5 mM ammonia acetate, 0.1% MeOH in water (A): 5 mM ammonia acetate, 0.1% MeOH in acetonitrile (B) (70/30, v/v). The flow rate was 0.6 mL/min. Column was maintained at ambient temperature. 20 μL of the samples were injected.
[…] The blood samples (0.3 mL) were drawn at 0.25, 0.5, 1.0, 2.0, 3.0, 4.0, 6.0, 8.0, 12 and 24 hour time points or 0.083, 0.25, 0.5, 1.0, 2.0, 4.0, 6.0, 8.0 and 24 hour time points and centrifuged at 3,000 or 4000 rpm for 2 to 10 min. The plasma solutions were collected, and analyzed by LC/MS/MS as described above. The pharmacokinetic parameters were calculated according to non-compartment model using WinNonlin procedure.

A further data set is described as follows: Hygroscopicity test. Type of data set: physicochemical. Conditions: p-toluenesulfonate; for Hygroscopicity (conclusion in words): from Table 6; for Hygroscopic capacity: 25±1° C. As to the method:
A glass weighing bottle equipped with a stopper was tarred and the weight was recorded as m1. Compound (I) in crystalline form A or amorphous form (about 1.0 g) was placed in the tared weighing bottle and capped with the stopper. The total weight was then recorded as m2. […] The weighing bottle capped with its stopper was weighed on day 5 and day 10 and the weight was recorded as m3.

Setting [3] is: high humidity (25±2° C., 90%±5% relative humidity), 0 day, p-toluenesulfonate.
[4] abbreviates: high humidity (25±2° C., 90%±5% relative humidity), 5 days, p-toluenesulfonate.
Where [5] appears, read: high humidity (25±2° C., 90%±5% relative humidity), 10 days, p-toluenesulfonate.
Where [6] appears, read: high temperature (60±2° C.), 0 day, p-toluenesulfonate.
The mark [7] stands for this setting: high temperature (60±2° C.), 5 days, p-toluenesulfonate.
[8] abbreviates: high temperature (60±2° C.), 10 days, p-toluenesulfonate.
The mark [9] stands for this setting: illuminating condition (visible light 4500 lx±500 lx with UV, 25±2° C., 60%±5% RH), 0 day, p-toluenesulfonate.
[10] abbreviates: illuminating condition (visible light 4500 lx±500 lx with UV, 25±2° C., 60%±5% RH), 5 days, p-toluenesulfonate.
Setting [11] is: illuminating condition (visible light 4500 lx±500 lx with UV, 25±2° C., 60%±5% RH), 10 days, p-toluenesulfonate.
[12] abbreviates: room temperature (30±2° C., 65%±5% relative humidity), 0 day, p-toluenesulfonate.
Where [13] appears, read: dose 9.7 mg/kg, grain size D90 32 μm.
[14] abbreviates: dose 10 mg/kg, grain size D90 22 μm.

In the case of `Cc1c(C(=O)Nc2ccc(Oc3ccnc4cc(OCC(C)(C)O)ccc34)c(F)c2)c(=O)n(-c2ccccc2)n1C.Cc1ccc(S(=O)(=O)O)cc1` [Amorphous, N-(3-fluoro-4-((7-(2-hydroxy-2-methylpropoxy)quinolin-4-yl)oxy)phenyl)-1,5-dimethyl-3-oxo-2-phenyl-2,3-dihydro-1H-pyrazole-4-carboxamide p-toluenesulfonate], the The impurity contents in data set [1] (setting [3]) is 0.14%; in data set [1] (setting [4]) it was 0.11%; in data set [1] (setting [5]), 0.07%; in data set [1] (setting [6]), 0.14%; in data set [1] (setting [7]), 0.13%; in data set [1] (setting [8]), 0.10%. Also, the The impurity contents in data set [1] (setting [9]) is given as 0.14%; in data set [1] (setting [10]) it was 0.36%; in data set [1] (setting [11]) it was 0.56%; in data set [1] (setting [12]), 0.14%; in data set [1] (room temperature (30±2° C., 65%±5% relative humidity), 5 days), 0.07%; in data set [1] (room temperature (30±2° C., 65%±5% relative humidity), 10 days), 0.07%. The “Increase of the impurity contents” value in data set [1] (listed as amorphous Compound (I), p-toluenesulfonate) was found to be 0.42%. The same compound gave an AUC(0-inf) in data set [2] (setting [13]) of 55300 ng·h/mL. The compound also displayed a Cmax in data set [2] (setting [13]) of 2640 ng/mL. Moreover, the Tmax in data set [2] (setting [13]) stood at 3.33 h. In data set [2] (setting [13]), this compound showed a half-life of 15 h. The AUC(0-t) in data set [2] (setting [13]) worked out at 37300 ng·h/mL. Further, the “Hygroscopicity (conclusion in words)” value in the data set “Hygroscopicity test” (listed as amorphous Compound (I)) was “hygroscopic”. The Hygroscopic capacity in the data set “Hygroscopicity test” (standing time 5 d) is 7.74%; in the data set “Hygroscopicity test” (standing time 10 d), 8.48%.

As to `Cc1c(C(=O)Nc2ccc(Oc3ccnc4cc(OCC(C)(C)O)ccc34)c(F)c2)c(=O)n(-c2ccccc2)n1C.Cc1ccc(S(=O)(=O)O)cc1` [Form A, N-(3-fluoro-4-((7-(2-hydroxy-2-methylpropoxy)quinolin-4-yl)oxy)phenyl)-1,5-dimethyl-3-oxo-2-phenyl-2,3-dihydro-1H-pyrazole-4-carboxamide p-toluenesulfonate], the The impurity contents in data set [1] (setting [3]) turned out to be 0.35%; in data set [1] (setting [4]) it was 0.37%; in data set [1] (setting [5]), 0.39%; in data set [1] (setting [6]), 0.35%; in data set [1] (setting [7]) it was 0.37%; in data set [1] (setting [8]), 0.37%. Further, the The impurity contents in data set [1] (setting [9]) amounted to 0.35%; in data set [1] (setting [10]), 0.38%; in data set [1] (setting [11]) it was 0.48%; in data set [1] (setting [12]), 0.35%. Moreover, in data set [1] (listed as crystalline form A of Compound (I), p-toluenesulfonate), the “Increase of the impurity contents” value worked out at 0.13%. In addition, in data set [2] (Cmax, AUC0-24h and AUC0-∞ compared with amorphous Compound (I)), the “Exposure and bioavailability in vivo (conclusion in words)” value was “good exposure and bioavailability”. In data set [2] (setting [14]), this compound came in with an AUC(0-inf) of 180000 ng·h/mL. For the same compound, the concentration in data set [2] (setting [14]) peaked (Cmax) at 6190 ng/mL. In data set [2] (setting [14]), the Tmax amounted to 4 h. Also, in data set [2] (setting [14]), the half-life is 25 h. Further, in data set [2] (setting [14]), the AUC(0-t) was found to be 131000 ng·h/mL. For the same compound, the “Hygroscopicity (conclusion in words)” value in “Hygroscopicity test” (listed as crystalline form A of compound (I)) is “not hygroscopic”. The Hygroscopic capacity was 0.03% in the data set “Hygroscopicity test” (standing time 5 d) and 0.12% in the data set “Hygroscopicity test” (standing time 10 d).
